Assay results: patent US20090012179A1, “Use of Tyrphostins to Stimulate Neurite Outgrowth” (priority 2004, published 2009)
“Also recorded” adds a separate entry of the source.

Tests used:
[1] = tested on: ERK2 (p42); assay: ERK2 (p42) activation in NS20Y cells; type: cell-based, mouse
Experimental: (§1) Cell stimulation, immunoblotting, and immunoprecipitation: Cells or neurons are grown in 6-well or 12-well plates to 80-90% confluence. The cells are starved in serum-free DMEM overnight, and then incubated with receptor agonists at 37° C. for the indicated durations. In some experiments, signaling inhibitors are added 45 minutes before simulation. Incubation is terminated by placing the tissue culture cluster on ice and rapidly aspirating the medium, followed by the addition of ice-cold RIPA^+ buffer (50 mM Tris-HCl, pH 7.5, 150 mM NaCl, 1% NP-40, 0.5% deoxycholate, 0.1% SDS, 1 mM NaVO3, and protease inhibitor (Calbiochem, San Diego, Calif.)) and incubation for 15 minutes with shaking. After centrifugation (14,000×g at 4° C. for 15 minutes), the supernatant is collected and the protein concentration is measured and adjusted using RIPA^+ buffer. Samples (30 μl) with equal amounts of protein mixed with Laemmli loading buffer are denatured at 70° C. for 10 minutes and separated by SDS-PAGE. […] The proteins are transferred to PVDF membrane (Millipore), detected with the primary antibodies (including anti-active ERK; anti-p-Tyr clone 4G10, Upstate; anti-TH; anti-DAT, sigma, anti-β-tubulin, etc.) and visualized with the SuperSignal™ West Pico chemiluminescent kit (Pierce Biotechnology, Rockford, Ill.). The intensity of bands is quantified using ImageQuant™ 5.2 (Amersham). […]

[2] = tested on: ERK1 (p44); assay: ERK1 (p44) activation in NS20Y cells; type: cell-based, mouse
Experimental: as §1

[3] = tested on: SH-SY5Y cells; assay: Neurite length in NGF-treated SH-SY5Y neuroblastoma cells; type: cell-based, human; conditions: 96 and 168 hours; for Neurite length / neurite elongation: SH-SY5Y + NGF 10 ng/ml, FK506 100 nM, A9 10 nM, 100 nM and 1 μM
Experimental: Analysis of neurite length in SH-SY5Y neuroblastoma cells: SH-SY5Y neuroblastoma cells develop axonal-like processes on treatment with NGF. For analysis of process length, cells (20 fields/well) are randomly photographed at 96 and 168 hours. Neurite lengths are measured on photographic prints using a Houston Instrument HI-PAD digitizing tablet connected to a computer with appropriate software (Bioquant IV); only processes more than twice the cell body length are measured. Data from identically treated wells are combined. […] Histograms are compared using a Mann-Whitney U test (α=0.05), which makes no assumptions about the shape of the distribution.
As disclosed herein, high and sustained ERK activation induces neurite growth in […] neuroblastoma cells and protects neuronal cells from neurotoxins. To test this, SH-SY5Y human neuroblastoma cells were used, which can be induced into neuron-like phenotype by NGF treatment. This is an established method for measuring neurite growth-promoting activity in vitro in Dr. Gold's lab (Gold et al., Neurosignals. 13:122-129, 2004; Gold et al., Exp. Neurol. 147:269-278, 1997). […] Representative micrographs at 168 hours for vehicle (control), NGF (10 ng/ml), and NGF (10 ng/ml) plus A9 (100 nM) are shown in FIG. 5B.

[4] = tested on: ERK; assay: ERK activation in NS20Y neuroblastoma cells, immunoblotting for dually phosphorylated ERK; type: cell-based, mouse; conditions: dually phosphorylated ERK by immunoblotting
[5] = tested on: ERK; assay: ERK activation in SH-SY5Y cells; type: cell-based, human
Experimental: SH-SY5Y cells are treated with A9, NGF ([…]), or EGF (10 ng/ml) for different durations, including 5, 15, 30, 60, and 120 minutes, to generate time-response curves for A9, NGF, and EGF. The level of ERK activation is measured by immunoblotting for the active (phosphorylated) ERK. The time-point with the maximum ERK response determined above is chosen for immunoprecipitation studies to assess the activation of PI3K, PDK1, and PKB/Akt. Cells are lysed with RIPA^+ buffer and precipitated with polyclonal antibodies for PI3K, PDK1, and PKB/Akt, and then the presence of p-Tyr in the precipitates will be determined by immunoblotting with the specific p-Tyr monoclonal antibody 4G10 (Upstate).

[6] = Golomb et al. 1996; cited from earlier work
[7] = tested on: ERK; assay: ERK activation in the brain; type: in vivo; conditions: observation, no data shown
[8] = tested on: ERK; assay: ERK activation in primary rat neostriatal neuron cultures; type: cell-based
Experimental: Primary Neuronal Cultures: The substantia nigra or striatal region is dissected from 4 day-old Sprague-Dawley rats and incubated in minimum essential medium (MEM) containing 20 U/ml papain for 2 hours at 37° C. The tissue is then triturated using fire-polished Pasteur pipettes in MEM supplemented with 10% fetal bovine serum, 0.45% glucose, […] insulin, 0.5 mM glutamine, 100 U/ml penicillin, and 100 μg/ml streptomycin. Cells are plated on 18 mm diameter poly-D-lysine-coated glass coverslips (Fisher 12-545-84 18cir-1D) at a density of 75,000 cells per coverslip for immunofluorescence imaging or in 12-well or 6-well tissue culture plates for immunoblotting studies. […]
Cell stimulation, immunoblotting, and immunoprecipitation: Cells or neurons are grown in 6-well or 12-well plates to 80-90% confluence. […] After centrifugation (14,000×g at 4° C. for 15 minutes), the supernatant is collected and the protein concentration is measured and adjusted using RIPA^+ buffer. […] The proteins are transferred to PVDF membrane (Millipore), detected with the primary antibodies (including anti-active ERK; anti-p-Tyr clone 4G10, Upstate; anti-TH; anti-DAT, sigma, anti-β-tubulin, etc.) and visualized with the SuperSignal™ West Pico chemiluminescent kit (Pierce Biotechnology, Rockford, Ill.). The intensity of bands is quantified using ImageQuant™ 5.2 (Amersham). […]

## CC(C)(C)c1cc(C=C(C#N)C#N)cc(C(C)(C)C)c1O [A9, tyrphostin A9]
[1]
  ERK2 (p42) stimulation: little stimulation on ERK2 (p42); also recorded: little effect on ERK2
[2]
  ERK1 (p44) activation: activated ERK1 (p44) the most
[3]
  Neurite length / neurite elongation: dramatically increased in length
[3]; listed as tyrphostin A9
  Neurite length / neurite elongation: stimulated neurite elongation
[3]; SH-SY5Y
  Distribution of neurite length (cumulative histograms), shift to the right versus NGF-treated: more pronounced
[4]
  ERK activation: robust activation of ERK; also recorded: stimulated ERK activation in NS20Y cells in a time (FIG. 2A) and dose (FIG. 2B)-dependent manner; also recorded: induced robust and sustained ERK activation
[4]; listed as tyrphostin A9
  ERK activation: stimulated robust and sustained ERK activation in a time and dose-dependent manner
[5]
  ERK activation in SH-SY5Y, indicated by use of MEK inhibitor PD98059: ERK is activated
[6]
  Side effects: has not been shown to produce obvious side effects
[7]
  ERK activation in the brain: can cause ERK activation in the brain
[8]
  A9-stimulated ERK activation: also observed
